Reference: article PMC9953269, “In Vivo Acute Toxicity Studies of Novel Anti-Melanoma Compounds Downregulators of hnRNPH1/H2” (Biomolecules, 2023)

Assays:
Balb/c mice [1] = assay: Blood chemistry after 21-day acute toxicity study; assay type: in vivo; conditions: 50 mg/kg bw sc 3×/week for 21 days, mean ± SD; for Creatinine: n=6, reference range 0.2–0.4; for Total protein: n=6, reference range 4.6–8.9; for BUN: n=6, reference range 7.0–26; for Phosphorus: n=6, reference range 8.2–14.7; for Calcium: n=6, reference range 9.4–12.5; for Glucose: n=6, reference range 129–329
Procedure: (§1) This study used 5- to 7-week-old male and female Balb/c (Jackson Laboratories) mice. The mice were housed in standard mouse shoe-box cages and maintained in a 12-hr light/12-hr dark cycle, with 50% humidity and 20 ± 3 °C. The mice had free access to a standard pellet diet (Certified PicoLab® Rodent Diet 20, Lab Diet) and water ad libitum. The study was conducted in accordance with the guidelines of the Nova Southeastern University (NSU) Institutional Animal Care and Use Committee (NSU IACUC protocol 2019.12.DM4).
(§2) The animals were divided into four groups with each group containing six mice (three male and three female). Group 1: non-treated control mice; Group 2: animals were treated with a vehicle control (10%/90% DMSO/sterile water, USP sterile injectable grade) for 21 days; Group 3: animals were treated with 2155-14 (50 mg/kg body weight) for 21 days; and Group 4: animals were treated with 2155-18 (50 mg/kg body weight) for 21 days three times/week. Compounds (2155-14 and 2155-18) were freshly prepared in 10% DMSO/H2O (both USP injectable grade) for each treatment day. Both 2155-14 and 2155-18 were weighed into autoclaved 1.5 mL Eppendorf vials using analytical scales. USP grade DMSO was added to each vial under aseptic conditions and vortexed. USP grade injectable sterile H2O was then added to each vial and again vortexed. Next, 1 mL insulin syringes with a 26-gauge needle were filled with 0.2 mL of the compound and delivered to the vivarium in the closed carrier for animal treatment. For the vehicle control group, syringes were filled with 0.2 mL of 10% DMSO/H2O (USP injectable grade).
(§3) All mice were euthanized after 21 days by CO2 overdose. Whole blood samples were collected via cardiocentesis with a 25-gauge needle immediately after euthanasia. Blood samples were collected in MiniCollect® Serum and Plasma Tubes containing either K3EDTA or lithium heparin for CBC and blood chemistry, respectively. Blood smears were prepared from whole blood and analyzed for the morphological changes of blood cells under the microscope.
(§4) The heart, lungs, stomach, intestines, pancreas, spleen, kidney with adrenal, liver, and brain were collected and placed in 10% neutral buffered formalin for histopathology. The tissues were processed via standard tissue processing to produce H&E slides. All H&E slides were reviewed blind to the treatment group. Tissues were evaluated for the presence of inflammation, degeneration, signs of toxicity, and any other abnormalities. CBC, blood chemistry, and histopathology analyses were performed at the Division of Comparative Pathology, University of Miami.
(§5) Statistical significance was set at p < 0.05. All data were analyzed using one-way ANOVA to compare means, and significant differences were further analyzed by Tukey’s multiple comparisons using Prism (version 8.0, GraphPad Inc., San Diego, CA, USA).

primary melanocytes = conditions: in vitro; cited from earlier work
Balb/c mice [2] = assay: Histopathology of organs (H&E) after 21-day acute toxicity study; assay type: in vivo; conditions: 50 mg/kg sc, 21 days
Procedure: as §2
(§6) The heart, lungs, stomach, intestines, pancreas, spleen, kidney with adrenal, liver, and brain were collected and placed in 10% neutral buffered formalin for histopathology. […] Tissues were evaluated for the presence of inflammation, degeneration, signs of toxicity, and any other abnormalities. […]

Balb/c mice [3] = assay: Overall acute toxicity after sc administration; assay type: in vivo; conditions: 50 mg/kg sc, 21 days
Procedure: as §1
The animals were divided into four groups with each group containing six mice (three male and three female). […]
All mice were euthanized after 21 days by CO2 overdose. […] Blood smears were prepared from whole blood and analyzed for the morphological changes of blood cells under the microscope.
as §6

[4] = test system: various cell types (liver, lung, breast, brain, skin, ovary, primary melanocytes, primary keratinocytes); conditions: in vitro, tested up to 100 µM; cited from earlier work
Balb/c mice [5] = assay: Body weight during 21-day acute toxicity study; assay type: in vivo; conditions: 50 mg/kg BW sc 3×/week for 3 weeks, n=6
Procedure: as §1
The animals were divided into four groups with each group containing six mice (three male and three female). Group 1: non-treated control mice; Group 2: animals were treated with a vehicle control (10%/90% DMSO/sterile water, USP sterile injectable grade) for 21 days; Group 3: animals were treated with 2155-14 (50 mg/kg body weight) for 21 days; and Group 4: animals were treated with 2155-18 (50 mg/kg body weight) for 21 days three times/week. Compounds (2155-14 and 2155-18) were freshly prepared in 10% DMSO/H2O (both USP injectable grade) for each treatment day. […]
as §5

melanoma cells = conditions: in vitro; read-out: IC50, inhibition of viability of melanoma cells; cited from earlier work
Balb/c mice [6] = assay: Complete blood count (CBC) after 21-day acute toxicity study; assay type: in vivo; conditions: 50 mg/kg bw sc 3×/week for 21 days; for Eosinohils / Monocytes / WBC / RBC / Segmented Neutrophils / Hgb / MCH / MCHC / HCT / Lymphocytes / MCV / Platelets: mean ± SD; for Eosinohils: n=6, reference range 0.11–4.91; for Monocytes: n=6, reference range 3.29–12.48; for WBC: n=6, reference range 3.48–14.03; for RBC: n=6, reference range 6.93–12.24; for Segmented Neutrophils: n=6, reference range 9.86–39.11; for Hgb: n=6, reference range 12.6–20.5; for MCH: n=6, reference range 13.2–17.6; for MCHC: n=6, reference range 23.3–32.7; for HCT: n=6, reference range 42.1–68.3; for Lymphocytes: n=6, reference range 48.81–83.19; for MCV: n=6, reference range 50.7–64.4; for Platelets: n=6, reference range 420–1698; for Banded Neutrophils: n=6, reference range 0–1; for Basophils: n=6, reference range 0–1.84
Procedure: as §1, §2, §3, §4, §5

Row | SMILES | Creatinine (Balb/c mice [1]) | Total protein (Balb/c mice [1]) | BUN (Balb/c mice [1]) | Phosphorus (Balb/c mice [1]) | Calcium (Balb/c mice [1]) | Glucose (Balb/c mice [1]) | Effect on viability of primary melanocytes (primary melanocytes) | Histopathological examination of hearts and livers (Balb/c mice [2]) | Acute toxicity after sc administration (Balb/c mice [3]) | TC50, toxicity against various cell types [4] | Change in body weight versus control groups (Balb/c mice [5]) | IC50 (melanoma cells) | Eosinohils (Balb/c mice [6]) | Monocytes (Balb/c mice [6]) | WBC (Balb/c mice [6]) | RBC (Balb/c mice [6]) | Segmented Neutrophils (Balb/c mice [6]) | Hgb (Balb/c mice [6]) | MCH (Balb/c mice [6]) | MCHC (Balb/c mice [6]) | other results
1 | O=C1NC[C@H](Cc2ccccc2)N(C[C@@H]2CCCN2C[C@@H](CC2CCCCC2)N2C[C@H](Cc3ccc(O)cc3)N(CCc3ccccc3)C(=O)C2=O)C1=O [Compound 2155-14] | * 0.44 ± 0.19 mg/dL | 7.1 ± 0.6 g/dL | 18.3 ± 2.5 mg/dL | 13.6 ± 0.4 mg/dL | 9.1 ± 0.85 mg/dL | 181 ± 25.7 mg/dL | do not have an effect on the viability of primary melanocytes | no adverse effects | lack of acute toxicity | > 100 µM | No significant changes in body weight | 0.5 to 10 µM | 0.5 ± 1.2% | 4.25 ± 4.27% | 5.1 ± 1.6 K/µL | 10.6 ± 2.1 M/µL | 18.8 ± 8.0% | 14.1 ± 1.6 g/dL | 14 ± 2.3 pg | 23 ± 5.1 g/dL | HCT (Balb/c mice [6]): 61.1%; Lymphocytes (Balb/c mice [6]): 78.3 ± 7.5%; MCV (Balb/c mice [6]): 61 ± 2.2 fL; Platelets (Balb/c mice [6]): 542 ± 95 K/µL; Banded Neutrophils (Balb/c mice [6]): 0%; Basophils (Balb/c mice [6]): 0%
2 | O=C1NC[C@H](Cc2ccccc2)N(C[C@@H]2CCCN2C[C@H](Cc2ccccc2)N2C[C@H](Cc3ccc(O)cc3)N(CCC34CC5CC(CC(C5)C3)C4)C(=O)C2=O)C1=O [Compound 2155-18] | * 0.46 ± 0.11 mg/dL | 6.7 ± 0.48 g/dL | 16.7 ± 1.6 mg/dL | * 15.3 ± 0.25 mg/dL | 8.7 ± 0.75 mg/dL | 212 ± 50.5 mg/dL | do not have an effect on the viability of primary melanocytes | no adverse effects | lack of acute toxicity | > 100 µM | No significant changes in body weight | 0.5 to 10 µM | 2 ± 1% | 6.7 ± 2.3% | 4.2 ± 2.7 K/µL | 7.9 ± 1.4 M/µL | 24.7 ± 10.9% | * 11.9 ± 1.6 g/dL | 14.7 ± 0.57 pg | 25.3 ± 0.58 g/dL | HCT (Balb/c mice [6]): 46.9 ± 6.4%; Lymphocytes (Balb/c mice [6]): 70.7 ± 11.3%; MCV (Balb/c mice [6]): 59.3 ± 2.1 fL; Platelets (Balb/c mice [6]): 741 ± 305 K/µL; Banded Neutrophils (Balb/c mice [6]): 0%; Basophils (Balb/c mice [6]): 0%
